# Experimental data reported in patent US8173694B2, “Therapeutic agent” (Pentraxin Therapeutics Limited, priority 2001, dated 2012).
# Tests used:
# [1] = target: serum amyloid P component (SAP) (Homo sapiens, UniProt P02743); assay: Inhibition of SAP binding to amyloid fibrils in vitro
# Text: A method for screening and testing inhibitors of serum amyloid P component (SAP) binding to amyloid fibrils in vitro was devised and used in collaboration with F Hoffmann-La Roche Ltd to identify a suitable lead molecule for drug development. A library of candidate compounds was screened accordingly. The subsequent collaborative medicinal chemistry programme led to synthesis of a family of dicarboxylic acid, pyrrolidone ring containing molecules, of which the most studied is (R)-1-[6-(R)-2-Carboxy-pyrrolidin-1-yl]-6-oxo-hexanoyl]pyrrolidine-2-carboxylic acid. This molecule and related compounds (EP-A-0915088) are modestly potent inhibitors of SAP binding to amyloid fibrils in vitro, with IC50 values around 0.5-1.0 μM.
# Further studies determined that each of the following bis-D-Proline compounds were tested for their ability to deplete SAP in vivo as described above. Each of the compounds identified below successfully depleted SAP. In addition, certain of the compounds were further tested for in vitro inhibition of binding of SAP to amyloid fibrils in accordance with the protocol provided in EP 0915088 at page 10, as referenced above. The results are shown in the second column below, where applicable.
# isolated pure human CRP = target: T1, isolated pure human CRP (Homo sapiens, UniProt P02741); assay: Size exclusion chromatography of isolated pure CRP mixed with drug; type: binding
# T1 sequence (P02741 19-224): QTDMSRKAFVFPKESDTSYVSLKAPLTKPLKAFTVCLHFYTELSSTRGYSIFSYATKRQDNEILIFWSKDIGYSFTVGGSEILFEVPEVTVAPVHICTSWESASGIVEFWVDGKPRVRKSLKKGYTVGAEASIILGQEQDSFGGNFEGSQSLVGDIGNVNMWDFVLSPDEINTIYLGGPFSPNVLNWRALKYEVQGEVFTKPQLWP
# Procedure: (§1) C-reactive protein (CRP) is a pentraxin closely related to SAP. Samples of isolated pure human SAP or CRP were mixed with (R)-1-[6-(R)-2-Carboxy-pyrrolidin-1-yl]-6-oxo-hexanoyl]pyrrolidine-2-carboxylic acid at the molar ratios shown, with respect to pentraxin protomer, in physiological ionic strength Tris buffered saline pH 8.0, and analysed by size exclusion chromatography precisely as described previously (14). The mixtures and the column eluants contained either no calcium ions or 2 mM calcium, and the concentrations of drug appropriate to maintain the molar ratios indicated above. In the absence of a specific ligand to which it can bind, purified human SAP is insoluble in the presence of calcium and elutes as high molecular weight aggregates in the void volume of the column (14). However in the absence of calcium and ligand, isolated SAP alone forms stable decamers, providing an excellent marker for the elution volume of this molecular assembly (14). Human CRP is a stable pentamer either in the presence or absence of calcium and thus provides a robust marker for the elution position of that molecular form (14).
# isolated pure human SAP = isolated pure human SAP (Homo sapiens, UniProt P02743); assay: Size exclusion chromatography of isolated pure SAP mixed with drug; type: binding; details: for Elution volume / Molecular assembly: SAP
# Text: SAP is a pentamer with 5 identical non-covalently associated protomers each bearing a single calcium dependent ligand binding site on one planar face, the binding (B) face, of the molecule (9). In the absence of calcium, human SAP forms stable decameric dimers, probably via A-face to A-face interactions (11). In the presence of calcium, isolated human SAP rapidly aggregates and precipitates, as a result of molecular lattice formation due to binding of the exposed carboxylate of the Glu167 residue on one SAP molecule by the calcium dependent ligand binding site of another SAP molecule (12,13). This autoaggregation of SAP is inhibited by other ligands to which SAP binds, and all the present inhibitors of SAP binding to amyloid fibrils were active in this respect. However we show here that the greater potency of (R)-1-[6-(R)-2-Carboxy-pyrrolidin-1-yl]-6-oxo-hexanoyl]pyrrolidine-2-carboxylic acid and related compounds, as inhibitors of SAP binding to amyloid fibrils in vitro, results from their capacity to cross link pairs of SAP molecules. The palindromic structure of (R)-1-[6-(R)-2-Carboxy-pyrrolidin-1-yl]-6-oxo-hexanoyl]pyrrolidine-2-carboxylic acid enables it to not only block the ligand binding sites on individual SAP protomers, but could also cross link pairs of pentameric SAP molecules to form B-B face to face decameric dimers.
# as §1
# 125I-labelled human SAP = target: T2, 125I-labelled human SAP (Homo sapiens, UniProt P02743); assay: Human SAP tracer in amyloid deposits of mice with AA amyloidosis; type: in vivo, mouse
# T2 construct: intravenous injection of ^125I-labelled pure human or mouse SAP at time zero
# Procedure: Clearance from the amyloid deposits, catabolism and excretion of the human SAP tracer were monitored globally by whole body counting of the mice (left), and the total amount of mouse SAP in the amyloidotic organs was determined after killing the animals on day 5 (right). […] Immediately after the 15 minute bleed, two groups, one that had received human SAP and the other mouse SAP, received a single intraperitoneal injection of 5 mg of (R)-1-[6-(R)-2-Carboxy-pyrrolidin-1-yl]-6-oxo-hexanoyl]pyrrolidine-2-carboxylic acid (desapin). Tracer remaining in the circulation is expressed as the mean (SD) percentage of the amount at the 15 minute time point for each group. […] In one of each of the pairs of groups receiving mouse or human SAP respectively, the tracer had been mixed with (R)-1-[6-(R)-2-Carboxy-pyrrolidin-1-yl]-6-oxo-hexanoyl]pyrrolidine-2-carboxylic acid (desapin) and incubated in vitro before injection into the animals. Tracer remaining in the circulation is expressed as mean (SD) total radioactivity per gram of blood in each group. Bottom panel: effect of administration of (R)-1-[6-(R)-2-Carboxy-pyrrolidin-1-yl]-6-oxo-hexanoyl]pyrrolidine-2-carboxylic acid (desapin) in the drinking water at the concentrations shown, on circulating human SAP values in human SAP transgenic mice. Mice of approximately 20 g body weight consume about 3 ml water per day.
# When (R)-1-[6-(R)-2-Carboxy-pyrrolidin-1-yl]-6-oxo-hexanoyl]pyrrolidine-2-carboxylic acid was administered by continuous infusion for 5 days via an indwelling osmotic pump, it dissociated both radiolabelled human SAP tracer, with which the amyloid deposits had previously been loaded, and all the endogenous mouse SAP in the deposits (FIG. 3). […] The SAP-(R)-1-[6-(R)-2-Carboxy-pyrrolidin-1-yl]-6-oxo-hexanoyl]pyrrolidine-2-carboxylic acid complex is evidently recognised as abnormal in vivo and swiftly removed from the circulation, but is apparently formed and/or cleared less efficiently in vivo with mouse SAP compared to human SAP.
# [2] = drug:protein 1:1, calcium present
# [3] = drug:protein 10:1, calcium present
# [4] = drug:protein 128:1, calcium present
# isolated pure human SAP, sequence (P02743 20-223): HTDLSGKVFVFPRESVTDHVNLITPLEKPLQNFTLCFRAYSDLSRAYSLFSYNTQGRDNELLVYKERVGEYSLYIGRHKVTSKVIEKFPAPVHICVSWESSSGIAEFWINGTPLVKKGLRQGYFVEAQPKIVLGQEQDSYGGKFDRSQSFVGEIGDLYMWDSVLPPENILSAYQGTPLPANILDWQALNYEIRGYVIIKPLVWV
# T2 sequence (P02743 20-223): as above
# serum amyloid P component (SAP), sequence (P02743 20-223): as above
structure (smiles),measurement,setting,value
O=C(O)[C@H]1CCCN1C(=O)CCCCC(=O)N1CCC[C@@H]1C(=O)O [(R)-1-[6-(R)-2-Carboxy-pyrrolidin-1-yl]-6-oxo-hexanoyl]pyrrolidine-2-carboxylic acid],Potency as inhibitor of SAP binding to amyloid fibrils relative to original lead compound,[1]; compared with 1-(3-Mercapto-2-methyl-1-oxopropyl)-D-proline,more potent inhibitors than the original lead compound
same,IC50,"[1]; read-out: IC50, inhibition of SAP binding to amyloid fibrils in vitro",500 to 1000 nM
same,Elution volume,isolated pure human CRP; [2],12.58 mL
same,Molecular assembly,isolated pure human CRP; [2],Pentamer
same,Elution volume,isolated pure human CRP; [3],11.96 mL
same,Molecular assembly,isolated pure human CRP; [3],Pentamer
same,Molecular assembly of isolated SAP by gel filtration,isolated pure human SAP; 128 fold or greater molar excess of drug,single pentameric form
same,Elution volume,isolated pure human SAP; [2],10.97 mL
same,Molecular assembly,isolated pure human SAP; [2],Decamer
same,Elution volume,isolated pure human SAP; [3],10.97 mL
same,Molecular assembly,isolated pure human SAP; [3],Decamer
same,Elution volume,isolated pure human SAP; [4],12.55 mL
same,Molecular assembly,isolated pure human SAP; [4],Pentamer
same,Molecular assembly of isolated SAP by gel filtration,isolated pure human SAP; ratios between equimolar and 100 fold molar excess of drug to SAP protomers,all the SAP is decameric
same,Dissociation of human SAP from amyloid deposits,"125I-labelled human SAP; 50 μg/kg/day, continuous infusion",significantly dissociated
same,Dissociation of radiolabelled human SAP tracer from amyloid deposits,125I-labelled human SAP; continuous infusion for 5 days via osmotic pump,dissociated
same,Uptake of radiolabelled human SAP tracer into mouse AA amyloid deposits,125I-labelled human SAP; intermittent intraperitoneal or subcutaneous injection,inhibited uptake
